One molecule from US20230304024A1, “Modulation of Gene Expression Via Transcription Factor-Chemically Induced Proximity (TF-CIP)” (The Board of Trustees of the Leland Stanford Junior …, priority 2020, published 2023) can be followed below.

The EC50 is the midpoint of the concentration-response curve.

Experiment [1] relates to BCL6 reporter. Briefly: BCL6 reporter GFP activation. Format: cell-based, human. Conditions: FIG. 6 Panel A. The source says: FIGS. 5A to 5C illustrate the development of reporters for activation of cell death or pro-apoptotic pathways by the disinhibited BCL6 protein or the pro-apoptotic protein FOXO3A. FIG. 5A: The BCL6 reporter consists of an array of BCL6 binding sites taken from different pro-apoptotic genes including TP53, PUMA, BIM and others. These genes have the ability to kill cells when simply overexpressed (PMID:11463391). Ten base pairs on either side of the actual human BCL6 binding site are included to take advantage of the fact that transcriptional specificity is due to the concerted binding of proteins in an enhanceosome (PMID:9510247, 18206362).
(§1) Note that the higher concentrations lead to a reduction in activation of the reporter consistent with the “hook effect” characteristic of bifunctional molecules as they saturate both binding sites.(PMID: 8752278; PMID:21406691), in this case the BCL6 protein and the estrogen receptor. […] Panel C. […] Viability was measured using the PrestoBlue HS (resazurin) assay for viable cells (1:10 ratio in media and 1 h incubation).
FIGS. 5A to 5C provide examples of how one measures the effect of a TF-CIP to allow chemical optimization of linker and ligands. […] Thus, the reporter system is multiplexed and useful for defining and quantitating apoptotic responses in many different cell types. […]

Experiment [2] has as its system Karpas 422. Briefly: Cell death / viability, PrestoBlue HS (resazurin) assay, Karpas 422. It counts as cell-based. The following applies: FIG. 6 Panel B, ER-positive cells with amplified/rearranged BCL6, compared with BI3812. Here is the method:
as §1
(§2) These reporter systems and direct measures of cancer cell killing were used to assess the TF-CIP molecules made by rational design that are illustrated in FIG. 4. As shown in Panel A, addition of ER-TF-CIP6 activates GFP expression by the BCL reporter with an EC50 of about 1 to 10 micromolar. […] Note that the higher concentrations lead to a reduction in activation of the reporter consistent with the “hook effect” characteristic of bifunctional molecules as they saturate both binding sites. (PMID: 8752278; PMID:21406691), in this case the BCL6 protein and the estrogen receptor. […] Viability was measured using the PrestoBlue HS (resazurin) assay for viable cells (1:10 ratio in media and 1 h incubation).
In general terms: Resazurin is reduced to fluorescent resorufin, in cell work by metabolically active cells.

The test system of experiment [3] is HEK293 cells. The experiment in a line: Cell death / viability, PrestoBlue HS (resazurin) assay, HEK293. It counts as cell-based. Conditions: FIG. 6 Panel C. Here is the method: as §1, §2
In experiment [4] the test system is ER-negative breast cancer cell lines. Briefly: Cell death / viability, PrestoBlue HS (resazurin) assay, ER-negative breast cancer cell lines. Format: cell-based. Conditions: FIG. 6 Panels D and E; two ER-negative or low-ER breast cancer cell lines. Here is the method: as §1, §2

Entries after “also recorded” stand apart in the source; their conditions may differ.

With `CNC(=O)COc1cc2cc(Nc3nc(N4CCC(C(=O)NCCOCCOCCNC(=O)CO/N=C5\CCC6C7CCc8cc(O)ccc8C7CC[C@]56C)CC4)ncc3Cl)cc(OC)c2n(C)c1=O` (stereo partly drawn) [ER-TF-CIP6], the “potency in BCL6 reporter relative to BI3812” value in experiment [1] (comparison with parent compound BI3812) was “substantially lower concentration than that of the parent compound”. Moreover, in experiment [1] (Homo sapiens, read-out: EC50 of activation of GFP expression by the BCL reporter), the EC50 was in the range of 1 to 10 µM. In addition, the entries for the “induction of cell death” value in experiment [2], in experiment [2] (listed as ER-TFCIP6) and in experiment [3] were “more effectively than B13812”, “more effectively than BI3812” and “induces cell death”, respectively. Besides, the cell killing entry in experiment [4] is reported as “does not kill; also recorded: are not killed”.
